# Source: patent US9932331B2, “Phenyl tetrahydroisoquinoline compound substituted with heteroaryl” (TAISHO PHARMACEUTICAL CO., LTD, priority 2014, dated 2018)
# Structures can show the parent of a compound that is named as a salt.
# Target: T1, human NHE3 (Homo sapiens, UniProt P48764)
# T1 sequence (P48764 26-834): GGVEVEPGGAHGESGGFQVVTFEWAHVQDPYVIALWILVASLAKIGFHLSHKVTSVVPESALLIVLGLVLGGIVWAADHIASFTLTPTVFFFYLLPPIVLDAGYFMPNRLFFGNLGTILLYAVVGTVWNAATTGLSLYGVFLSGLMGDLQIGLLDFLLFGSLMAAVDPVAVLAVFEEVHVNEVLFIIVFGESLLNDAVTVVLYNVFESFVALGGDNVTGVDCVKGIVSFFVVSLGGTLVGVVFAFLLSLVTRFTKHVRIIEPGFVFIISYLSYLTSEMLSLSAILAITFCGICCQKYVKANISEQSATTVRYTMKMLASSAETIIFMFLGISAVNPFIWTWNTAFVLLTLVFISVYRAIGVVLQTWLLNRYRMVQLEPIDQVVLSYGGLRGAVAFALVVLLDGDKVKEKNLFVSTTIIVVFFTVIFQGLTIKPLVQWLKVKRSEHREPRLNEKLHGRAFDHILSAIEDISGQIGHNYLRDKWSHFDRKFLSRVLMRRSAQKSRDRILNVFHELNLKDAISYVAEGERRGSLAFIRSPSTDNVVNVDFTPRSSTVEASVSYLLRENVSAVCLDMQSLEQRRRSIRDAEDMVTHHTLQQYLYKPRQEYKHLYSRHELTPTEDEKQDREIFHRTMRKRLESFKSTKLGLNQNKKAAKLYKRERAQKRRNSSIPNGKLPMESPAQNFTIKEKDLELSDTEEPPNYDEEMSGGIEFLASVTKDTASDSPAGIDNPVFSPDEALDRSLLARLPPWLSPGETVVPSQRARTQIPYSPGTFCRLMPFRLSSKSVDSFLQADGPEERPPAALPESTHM
# Experiment: NHE3 inhibition test (recovery of intracellular pH in cell line stably expressing human NHE3)
# Type: cell-based
# Conditions: OK cells deficient in endogenous NHE stably expressing human NHE3; BCECF fluorescence, initial rate of pH recovery; read-out: human NHE3 inhibitory activity IC50
# Protocol: (1) Preparation of Cell Line Deficient in Endogenous NHE
# The cell line deficient in endogenous NHE was prepared according to the method of Jacques Pouyssegur et al. (Proc. Natl. Acad. Sci. USA. 1984, Vol. 81, 4833-4837) using opossum kidney (OK) cells (ATCC).
# (2) Preparation of Expression Plasmid and Cell Line Stably Expressing Human NHE3
# The expression plasmid was constructed by inserting a human NHE3 (SLC9A3, Accession No. NM_004174) cDNA sequence (GeneCopoeia, Inc.) into a pcDNA3.2/V5-DEST vector (Life Technologies Corp.).
# The OK cells deficient in endogenous NHE were transfected with the constructed human NHE3 expression plasmid to prepare stably expressing cells. The transfection was carried out by electroporation using a Nucleofector 2b device (Lonza Group Ltd.). A stably expressing cell line was selected in medium supplemented with 500 μg/mL Geneticin (Life Technologies Corp.) and isolated.
# NHE3 activity measurement method using cell: The activity was determined by using the NHE3-mediated recovery of intracellular pH occurring after intracellular acidification, as an index. The intracellular pH was measured by a partial modification of the pH-sensitive fluorescent indicator method reported by Tsien et al. (Proc. Natl. Acad. Sci. USA., 1984, 81, 7436-7440).
# The cell line stably expressing human NHE3 was inoculated on a poly-D-lysine-coated 96-well plate (Greiner Bio-one) and cultured overnight. […] Then, Hank's balanced salt buffer solution containing 0.25 μM BCECF-AM (Dojindo Laboratories) was added to the cells, which were then incubated at 37° C. for 30 minutes. […] The cells thus incubated in the NH4Cl buffer solution were washed with NH4Cl-free buffer solution (133.8 mM choline chloride, […], 5 mM glucose, 4.7 mM KCl, 1.25 mM CaCl2, 1.25 mM MgCl2, 0.97 mM K2HPO4, 0.23 mM KH2PO4, pH 7.4) to decrease the intracellular pH. After the washing step, 70 μL of a test compound solution prepared with the NH4Cl-free buffer solution was added to the cells, and 70 iμL of sodium ion-containing buffer solution (133.8 mM NaCl, 10 mM HEPES, 5 mM glucose, 4.7 mM KCl, 1.25 mM CaCl2, 1.25 mM MgCl2, 0.97 mM Na2HPO4, 0.23 mM NaH2PO4, pH 7.4) was added thereto in a measurement system FDSS6000 (Hamamatsu Photonics K.K.) to start the recovery of pH. The recovery of intracellular pH was monitored using BCECF fluorescence (excitation wavelength: 480 nm, fluorescence wavelength: 520 to 560 nm), and the initial rate of the pH recovery was plotted. The recovery of pH without test compound was defined as the maximum recovery, and the test compound concentration necessary to inhibit 50% of the maximum recovery was calculated as an IC50 value.
row,IC50 [nM],Compound
1,217,"CN1Cc2c(Cl)cc(Cl)cc2[C@H](c2cccc(-c3ccncc3)c2)C1 [Example 1-1, (4S)-6,8-Dichloro-2-methyl-4-[3-(pyridin-4-yl)phenyl]-1,2,3,4-tetrahydroisoquinoline]"
2,217,"CN1Cc2c(Cl)cc(Cl)cc2[C@H](c2cccc(-c3cccnc3)c2)C1 [Example 1-2, (4S)-6,8-Dichloro-2-methyl-4-[3-(pyridin-3-yl)phenyl]-1,2,3,4-tetrahydroisoquinoline trifluoroacetate]"
3,392,"CN1Cc2c(Cl)cc(Cl)cc2[C@H](c2cccc(-c3ccn[nH]3)c2)C1 [Example 1-3, (4S)-6,8-Dichloro-2-methyl-4-[3-(1H-pyrazol-3-yl)phenyl]-1,2,3,4-tetrahydroisoquinoline]"
4,257,"CN1Cc2c(Cl)cc(Cl)cc2[C@H](c2cccc(-c3cn[nH]c3)c2)C1 [Example 1-4, (4S)-6,8-dichloro-2-methyl-4-[3-(1H-pyrazol-4-yl)phenyl]-1,2,3,4-tetrahydroisoquinoline]"
5,58.1,"Cc1cc(-c2cccc([C@@H]3CN(C)Cc4c(Cl)cc(Cl)cc43)c2)cnn1 [Example 1-5, (4S)-6,8-Dichloro-2-methyl-4-[3-(6-methylpyridazin-4-yl)phenyl]-1,2,3,4-tetrahydroisoquinoline trifluoroacetate]"
6,373,"CN1Cc2c(Cl)cc(Cl)cc2[C@H](c2cccc(-c3ccccn3)c2)C1 [Example 1-6, (4S)-6,8-Dichloro-2-methyl-4-[3-(pyridin-2-yl)phenyl]-1,2,3,4-tetrahydroisoquinoline trifluoroacetate]"
7,626,"CN1Cc2c(Cl)cc(Cl)cc2[C@H](c2cccc(-c3ccnc(C#N)c3)c2)C1 [Example 1-7, 4-{3-[(4S)-6,8-Dichloro-2-methyl-1,2,3,4-tetrahydroisoquinolin-4-yl]phenyl}pyridine-2-carbonitrile]"
8,126,"CN1Cc2c(Cl)cc(Cl)cc2C(c2cccc(-c3cn(C)nn3)c2)C1 (stereo not shown) [Example 1-8, 6,8-Dichloro-2-methyl-4-[3-(1-methyl-1H-1,2,3-triazol-4-yl)phenyl]-1,2,3,4-tetrahydroisoquinoline]"
9,561,"CNc1cc(-c2cccc([C@@H]3CN(C)Cc4c(Cl)cc(Cl)cc43)c2)ccn1 [Example 1-9, 4-{3-[(4S)-6,8-Dichloro-2-methyl-1,2,3,4-tetrahydroisoquinolin-4-yl]phenyl}-N-methylpyridin-2-amine trifluoroacetate]"
10,169,"CN1Cc2c(Cl)cc(Cl)cc2[C@H](c2cccc(-c3cncnc3)c2)C1 [Example 1-10, (4S)-6,8-Dichloro-2-methyl-4-[3-(pyrimidin-5-yl)phenyl]-1,2,3,4-tetrahydroisoquinoline trifluoroacetate]"
11,1600,"COc1cc(-c2cccc([C@@H]3CN(C)Cc4c(Cl)cc(Cl)cc43)c2)ccn1 [Example 1-11, (4S)-6,8-Dichloro-4-[3-(2-methoxypyridin-4-yl)phenyl]-2-methyl-1,2,3,4-tetrahydroisoquinoline trifluoroacetate]"
12,650,"CCc1cc(-c2cccc([C@@H]3CN(C)Cc4c(Cl)cc(Cl)cc43)c2)ccn1 [Example 1-12, (4S)-6,8-Dichloro-4-[3-(2-ethylpyridin-4-yl)phenyl]-2-methyl-1,2,3,4-tetrahydroisoquinoline trifluoroacetate]"
13,271,"COc1cc(-c2cccc([C@@H]3CN(C)Cc4c(Cl)cc(Cl)cc43)c2)ncn1 [Example 1-13, (4S)-6,8-Dichloro-4-[3-(6-methoxypyrimidin-4-yl)phenyl]-2-methyl-1,2,3,4-tetrahydroisoquinoline trifluoroacetate]"
14,173,"CN1Cc2c(Cl)cc(Cl)cc2[C@H](c2cccc(-c3cnccn3)c2)C1 [Example 1-14, (4S)-6,8-Dichloro-2-methyl-4-[3-(pyrazin-2-yl)phenyl]-1,2,3,4-tetrahydroisoquinoline trifluoroacetate]"
15,117,"CNc1cc(-c2cccc([C@@H]3CN(C)Cc4c(Cl)cc(Cl)cc43)c2)ncn1 [Example 1-15, 6-{3-[(4S)-6,8-Dichloro-2-methyl-1,2,3,4-tetrahydroisoquinolin-4-yl]phenyl}-N-methylpyrimidin-4-amine trifluoroacetate]"
16,184,"CN1Cc2c(Cl)cc(Cl)cc2[C@H](c2cccc(-c3ncccn3)c2)C1 [Example 1-16, (4S)-6,8-Dichloro-2-methyl-4-[3-(pyrimidin-2-yl)phenyl]-1,2,3,4-tetrahydroisoquinoline trifluoroacetate]"
17,109,"CN1Cc2c(Cl)cc(Cl)cc2[C@H](c2cccc(-c3ccnnc3)c2)C1 [Example 1-17, (4S)-6,8-Dichloro-2-methyl-4-[3-(pyridazin-4-yl)phenyl]-1,2,3,4-tetrahydroisoquinoline trifluoroacetate]"
18,95.7,"CN1Cc2c(Cl)cc(Cl)cc2[C@H](c2cccc(-c3cn(C)cn3)c2)C1 [Example 1-18, (4S)-6,8-Dichloro-2-methyl-4-[3-(1-methyl-1H-imidazol-4-yl)phenyl]-1,2,3,4-tetrahydroisoquinoline]"
19,856,"Cc1cc(-c2cccc([C@@H]3CN(C)Cc4c(Cl)cc(Cl)cc43)c2)sn1 [Example 1-19, (4S)-6,8-Dichloro-2-methyl-4-[3-(3-methyl-1,2-thiazol-5-yl)phenyl]-1,2,3,4-tetrahydroisoquinoline hydrochloride]"
20,208,"CN1Cc2c(Cl)cc(Cl)cc2[C@H](c2cccc(-c3cccnn3)c2)C1 [Example 1-20, (4S)-6,8-Dichloro-2-methyl-4-[3-(pyridazin-3-yl)phenyl]-1,2,3,4-tetrahydroisoquinoline hydrochloride]"
21,1170,"CN1Cc2c(Cl)cc(Cl)cc2[C@H](c2cccc(-c3ccc[nH]3)c2)C1 [Example 1-21, (4S)-6,8-Dichloro-2-methyl-4-[3-(1H-pyrrol-2-yl)phenyl]-1,2,3,4-tetrahydroisoquinoline]"
22,306,"CN1Cc2c(Cl)cc(Cl)cc2[C@H](c2cccc(-c3ncco3)c2)C1 [Example 1-22, (4S)-6,8-Dichloro-2-methyl-4-[3-(1,3-oxazol-2-yl)phenyl]-1,2,3,4-tetrahydroisoquinoline hydrochloride]"
23,3220,"CN1Cc2c(Cl)cc(Cl)cc2[C@H](c2cccc(-c3ccco3)c2)C1 [Example 1-23, (4S)-6,8-Dichloro-4-[3-(furan-2-yl)phenyl]-2-methyl-1,2,3,4-tetrahydroisoquinoline]"
24,89.3,"CN1Cc2c(Cl)cc(Cl)cc2[C@H](c2cccc(-c3nn[nH]n3)c2)C1 [Example 2-1, (4S)-6,8-dichloro-2-methyl-4-[3-(2H-tetrazol-5-yl)phenyl]-1,2,3,4-tetrahydroisoquinoline]"

row,Compound,IC50 [nM]
1,"1,3-Bis[14-(4-{3-[(4S)-6,8-dichloro-2-methyl-1,2,3,4-tetrahydroisoquinolin-4-yl]phenyl}-1H-1,2,3-triazol-1-yl)-3,6,9,12-tetraoxatetradec-1-yl]urea hydrochloride [Example 7-44]",7.6
